Results on 19 compounds are retold here after patent US6706880B2 (Research Triangle Institute, priority 1990, dated 2004).

The structures appear in SMILES notation. Where two headings read alike, the source gives them in different places.

The target of one assay is T1, serotonin transporter (Rattus norvegicus, UniProt P31652).
T1 construct: from tissue
As to the kind of experiment: Inhibition of [3H]paroxetine radioligand binding at the serotonin transporter. The source says:
(§1) Illustrative in vitro assays for binding are described in Boja et al Ann. NY Acad. Sci. 654:282-291 (1992), which is incorporated herein by reference in its entirety. […] Alternatively, the compounds may be analyzed by their ability to inhibit reuptake of a labelled neurotransmitter in a sample, in particular, in synaptosomes.

Assay [1] has as its target norepinephrine transporter (UniProt Q9WTR4). The assay is described as follows: Inhibition of [3H]nisoxetine radioligand binding at the norepinephrine transporter.
Description: as §1

A further assay deals with dopamine transporter (UniProt P23977). It is filed as binding.
Description: as §1

Setting [2] is: 5-HT IC50 for inhibition of radioligand binding, 5-HT=[3H] paroxetine.
Setting [3] is: IC50 5-HT [3H]-paroxetine, Table IV.
The mark [4] stands for this setting: read-out: IC50 NE [3H]-nisoxetine, Table IV.
Setting [5] is: read-out: NEN IC50 for inhibition of radioligand binding, NEN=[3H] nisoxetine.
The mark [6] stands for this setting: read-out: DA IC50 for inhibition of radioligand binding, DA=[3H]WIN 35,428.
Where [7] appears, read: read-out: IC50 DA [3H]-WIN 35,428, Table IV.
[8] abbreviates: 5-HT=[3H] paroxetine, read-out: 5-HT IC50 for inhibition of radioligand binding.

T1 sequence (P31652 whole entry): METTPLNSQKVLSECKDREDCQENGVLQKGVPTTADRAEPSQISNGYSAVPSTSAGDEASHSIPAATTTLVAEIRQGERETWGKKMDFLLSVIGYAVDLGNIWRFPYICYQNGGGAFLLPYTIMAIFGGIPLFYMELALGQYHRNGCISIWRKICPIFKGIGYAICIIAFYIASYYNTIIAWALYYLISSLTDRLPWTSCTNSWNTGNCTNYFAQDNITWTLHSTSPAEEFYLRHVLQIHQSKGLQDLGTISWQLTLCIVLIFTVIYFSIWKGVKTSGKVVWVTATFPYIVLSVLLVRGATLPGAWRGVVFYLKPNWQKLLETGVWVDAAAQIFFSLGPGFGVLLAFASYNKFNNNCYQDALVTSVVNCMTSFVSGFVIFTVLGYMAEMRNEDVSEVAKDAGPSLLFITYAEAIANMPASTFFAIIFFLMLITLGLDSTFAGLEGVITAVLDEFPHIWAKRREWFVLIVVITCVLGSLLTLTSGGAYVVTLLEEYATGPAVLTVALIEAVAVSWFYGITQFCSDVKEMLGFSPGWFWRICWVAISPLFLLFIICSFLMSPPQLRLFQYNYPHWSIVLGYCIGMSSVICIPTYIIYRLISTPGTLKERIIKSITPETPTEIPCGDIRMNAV

Regarding `CC1C(c2ccc(Cl)cc2)CC2CCC1N2C` (stereo not drawn) [RTI-4229-139], the IC50 at serotonin transporter (setting [2]) amounted to 85 nM; at serotonin transporter (setting [3]), 85 ± 9.3 nM; in assay [1] (setting [4]), 57 ± 2.6 nM; in assay [1] (setting [5]) it was 56.9 nM; on dopamine transporter (setting [6]) it was 1.67 nM; at dopamine transporter (setting [7]), 1.87 ± 0.13 nM.
Turning to `COc1ccc(-c2noc(C3C(c4ccc(Cl)cc4)CC4CCC3N4C)n2)cc1` (stereo not drawn) [RTI-4229-141], the IC50 on serotonin transporter (setting [2]) came to 337 nM; in assay [1] (setting [5]), 835 nM; at dopamine transporter (setting [6]), 1.81 nM.
`COC(=O)C1C2CCC(CC1c1ccc(F)cc1)N2` (stereo not drawn) [RTI-4229-142]: the IC50 was 68.6 nM at serotonin transporter (setting [8]), 18.8 nM in assay [1] (setting [5]) and 4.39 nM at dopamine transporter (setting [6]).
In the case of `CN1C2CCC1C(c1nc(-c3ccc(Cl)cc3)no1)C(c1ccc(Cl)cc1)C2` (stereo not drawn) [RTI-4229-143], the IC50 on serotonin transporter (setting [2]) was determined as 404 nM; in assay [1] (setting [5]), 4070 nM; at dopamine transporter (setting [6]) it was 4.1 nM.
The corresponding values for `CN1C2CCC1C(c1nc(-c3ccc(Br)cc3)no1)C(c1ccc(Cl)cc1)C2` (stereo not drawn) [RTI-4229-144] are 106 nM, 1820 nM and 3.44 nM.
For `COC(=O)OCC1C(c2ccc(Cl)cc2)CC2CCC1N2C` (stereo not drawn) [RTI-4229-145], the IC50 on serotonin transporter (setting [2]) is 2930 nM; at serotonin transporter (setting [3]) it was 2930 ± 181 nM; in assay [1] (setting [4]) it was 1480 ± 96 nM; in assay [1] (setting [5]), 1480 nM; at dopamine transporter (setting [6]), 9.6 nM; at dopamine transporter (setting [7]), 9.6 ± 0.42 nM.
For `CN1C2CCC1C(C(=O)NCO)C(c1ccc(Cl)cc1)C2` (stereo not drawn) [RTI-4229-146], the IC50 came to 98 nM on serotonin transporter (setting [8]), 144 nM in assay [1] (setting [5]) and 2.05 nM at dopamine transporter (setting [6]).
For `CN1C2CCC1C(C(=O)N1CCCC1)C(c1ccc(Cl)cc1)C2` (stereo not drawn) [RTI-4229-147], the results for the IC50 (at serotonin transporter (setting [2]); in assay [1] (setting [5]); on dopamine transporter (setting [6])) were 12400 nM, 3950 nM and 1.38 nM, respectively.
In the same order, the values of `Cc1ccc(C2CC3CCC([C@H]2C(=O)OC2CCC2)N3C)cc1` (stereo partly drawn) [RTI-4229-150] are 2020 nM, 4740 nM and 3.74 nM.
Consider `Cc1ccc(C2CC3CCC([C@H]2c2nc(-c4ccccc4)no2)N3C)cc1` (stereo partly drawn) [RTI-4229-151], for which the IC50 on serotonin transporter (setting [2]) came out at 1070 nM; in assay [1] (setting [5]) it was 60 nM; on dopamine transporter (setting [6]) it was 2.33 nM.
The corresponding values for `CC(C)OC(=O)C1C2CCC(CC1c1ccc(I)cc1)N2` (stereo not drawn) [RTI-4229-153] are 3.59 nM, 132 nM and 1.06 nM.
The corresponding values for `CC(C)c1noc(C2C(c3ccc(Cl)cc3)CC3CCC2N3C)n1` (stereo not drawn) [RTI-4229-154] are 3460 nM, 135 nM and 6 nM.
For the compound `CCc1ccc(C2CC3CCC(N3)C2C(=O)OC)cc1` (stereo not drawn) [RTI-4229-173], the IC50 at serotonin transporter (setting [8]) stood at 8.13 nM; in assay [1] (setting [5]) it was 122 nM; on dopamine transporter (setting [6]), 49.9 nM.
Take `CN1C2CCC1C(C(=O)OC1CC1)C(c1ccc(Cl)cc1)C2` (stereo not drawn) [RTI-4229-190]: the IC50 at serotonin transporter (setting [8]) amounted to 168 nM; in assay [1] (setting [5]) it was 235 nM; on dopamine transporter (setting [6]), 0.96 nM.
On to `CN1C2CCC1C(C(=O)OC1CC1)C(c1ccc(I)cc1)C2` (stereo not drawn) [RTI-4229-191], for which the IC50 at serotonin transporter (setting [8]) amounted to 15.5 nM; in assay [1] (setting [5]) it was 102 nM; at dopamine transporter (setting [6]) it was 0.61 nM.
Take `Cc1ccc(C2CC3CCC(C2C(=O)OC2CC2)N3C)cc1` (stereo not drawn) [RTI-4229-193]: the IC50 was 1070 nM on serotonin transporter (setting [8]), 544 nM in assay [1] (setting [5]) and 1.68 nM at dopamine transporter (setting [6]).
The corresponding values for `Cc1cccc(OC(=O)C2C(c3ccc(Cl)cc3)CC3CCC2N3C)c1` (stereo not drawn) [RTI-4229-203] are 2150 nM, 2740 nM and 9.37 nM.
For `Cc1ccccc1OC(=O)C1C(c2ccc(Cl)cc2)CC2CCC1N2C` (stereo not drawn) [RTI-4229-204], the IC50 worked out at 3770 nM at serotonin transporter (setting [8]), 4780 nM in assay [1] (setting [5]) and 3.91 nM on dopamine transporter (setting [6]).
Regarding `Cc1ccc(C2CC3CCC(C2C(=O)Oc2cccc(C)c2)N3C)cc1` (stereo not drawn) [RTI-4229-205], the figures for the IC50 (on serotonin transporter (setting [8]); in assay [1] (setting [5]); on dopamine transporter (setting [6])) were 5240 nM, 2140 nM and 8.19 nM, respectively.
